Patent US9505728B2, “Triazolone compounds and uses thereof” (INCEPTION 2, INC., priority 2012, dated 2016)
pIC50: −log10 of the molar value.

How the values were obtained:
Thyroid Receptor β = biological target: T1, Thyroid Receptor β (Homo sapiens, UniProt P10828); experiment: Target selectivity counterscreen, Thyroid Receptor β reporter assay; type: cell-based; conditions: receptor agonist at ~EC80
T1 construct: host or cells: engineered reporter cells of the kit
T1 sequence (P10828 1-461): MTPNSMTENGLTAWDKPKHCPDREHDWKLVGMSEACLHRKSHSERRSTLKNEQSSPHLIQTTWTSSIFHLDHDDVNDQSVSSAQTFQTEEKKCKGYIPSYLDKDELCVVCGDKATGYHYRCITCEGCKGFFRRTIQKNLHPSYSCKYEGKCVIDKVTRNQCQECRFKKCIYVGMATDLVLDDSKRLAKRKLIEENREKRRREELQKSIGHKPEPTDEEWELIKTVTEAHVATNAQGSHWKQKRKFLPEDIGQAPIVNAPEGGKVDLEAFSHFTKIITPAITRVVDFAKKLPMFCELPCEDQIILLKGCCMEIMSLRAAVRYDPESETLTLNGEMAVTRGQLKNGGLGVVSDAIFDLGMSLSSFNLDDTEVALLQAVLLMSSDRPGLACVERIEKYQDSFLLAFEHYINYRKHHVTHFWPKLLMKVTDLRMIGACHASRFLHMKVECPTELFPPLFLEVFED
Experimental: (§1) Target Selectivity Assays
(§2) To determine species selectivity, a Mouse PPARα Reporter Assay System was used (Indigo Biosciences, Cat. #M00111). Activity of test compounds to antagonize or agonize other isoforms of human PPAR, for example β/δ and γ, were assessed using the corresponding kits from Indigo Biosciences (Cat. #IB00121 and #IB00101, respectively). In addition to PPAR activity, compounds were also screened for activity against other nuclear hormone receptors including Estrogen Receptor β, Glucocorticoid Receptor and Thyroid Receptor β using commercially available kits (Indigo Biosciences, Cat. #IB00411, IB00201 and IB01101, respectively). Each assay system from Indigo Biosciences uses technology analogous to the human PPARα kit, with the variance being that the cells used for each assay were engineered to over-express the receptor of interest. In addition, the appropriate receptor agonist (included with each kit) was used at ˜EC80 for assays in which antagonist potency was being assessed.

Glucocorticoid Receptor = biological target: T2, Glucocorticoid Receptor (Homo sapiens, UniProt P04150); experiment: Target selectivity counterscreen, Glucocorticoid Receptor reporter assay; type: cell-based; conditions: receptor agonist at ~EC80
T2 construct: host or cells: engineered reporter cells of the kit
T2 sequence (P04150 1-777): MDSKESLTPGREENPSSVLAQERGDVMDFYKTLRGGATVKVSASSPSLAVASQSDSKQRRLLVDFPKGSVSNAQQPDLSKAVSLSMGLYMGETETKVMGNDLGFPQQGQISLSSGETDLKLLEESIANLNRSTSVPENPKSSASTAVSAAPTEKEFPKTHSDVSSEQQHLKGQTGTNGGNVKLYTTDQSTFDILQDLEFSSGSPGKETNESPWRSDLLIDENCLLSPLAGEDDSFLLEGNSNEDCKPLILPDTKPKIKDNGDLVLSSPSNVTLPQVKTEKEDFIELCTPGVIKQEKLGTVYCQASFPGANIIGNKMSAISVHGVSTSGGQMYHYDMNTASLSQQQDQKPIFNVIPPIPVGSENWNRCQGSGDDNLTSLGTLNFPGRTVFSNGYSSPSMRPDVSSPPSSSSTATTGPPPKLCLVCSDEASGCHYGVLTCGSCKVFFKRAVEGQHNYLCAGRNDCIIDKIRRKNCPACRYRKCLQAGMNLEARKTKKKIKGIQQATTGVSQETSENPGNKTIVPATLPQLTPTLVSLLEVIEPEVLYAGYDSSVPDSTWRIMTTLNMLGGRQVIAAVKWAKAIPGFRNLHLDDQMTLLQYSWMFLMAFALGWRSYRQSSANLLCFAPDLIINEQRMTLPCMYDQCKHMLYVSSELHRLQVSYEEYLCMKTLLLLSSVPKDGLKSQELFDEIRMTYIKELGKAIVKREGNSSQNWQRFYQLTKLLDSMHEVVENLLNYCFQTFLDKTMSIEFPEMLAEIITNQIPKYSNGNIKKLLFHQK
Experimental: as §1, §2

pIC50 (Thyroid Receptor β): < 5.00
pIC50 (Glucocorticoid Receptor): 4.44
Compound: CCn1c(CCCc2ccc(-c3ccc(NS(=O)(=O)c4ccccc4)cn3)cc2)nn(Cc2ccc(C(C)(C)C)cc2)c1=O [Example 10, N-(6-(4-(3-(1-(4-(tert-Butyl)benzyl)-4-ethyl-5-oxo-4,5-dihydro-1H-1,2,4-triazol-3-yl)propyl)phenyl)pyridin-3-yl)benzenesulfonamide]
